Measured values taken from US6692927B2, “Bax degradation involvement in tumor survival and progression” (University of South Florida, priority 2000, dated 2004).
Where a SMILES comes first, the peptide text is derived from it. [ ]: non-standard residue; d: D form. The star is where a group is joined. Nva = CCC[C@H](N)C(=O)O; Cbz = O=C(OCc1ccccc1)*

Tested on: Bax degradation activity
Experiment: cell-free Bax degradation assay, inhibitor added to MCF-7 cell extract
Assay type: biochemical, human
Conditions: 10-minute preincubation of MCF-7 cell extract with inhibitor (100 mM per FIG. 9C legend), 37° C., 4 h
Procedure: FIGS. 9A-9F show Bax degradation depends on ubiquitination, proteasome and ATP. (FIG. 9A) Jurkat cells (0 h) were treated with either 50 μM LLnV or 10 μM lactacystin, followed by preparation of Bax immunoprecipitates (with clone 6A7), which were immunoblotted with an ubiquitin antibody. Positions of putative ubiquitinated Bax proteins (p47, p55) are indicated at left. The nature of the ˜30 kDa and ˜84 kDa remains unclear. (FIG. 9B) The [^35S]-labeled Bax (upper) or Bcl-2 (lower) protein (1 μl) were incubated at 37° C. for 2 h with either buffer Z only (lane 1) or […] protein extract of MCF-7 cells grown exponentially (lane 2) or pretreated for 8 h with […] LLnV (lane 3). (FIG. 9C) The [^35S]-labeled Bax protein (1 μl) was incubated with either buffer Z only (lane 1) or 100 μg MCF-7 cell lysate at 37° C. for 4 h, in the presence of an indicated inhibitor (100 mM; lanes 3-8) or an equal volume of DMSO (lane 2) in buffer Z. A weak band of ˜16 kDa (indicated by an arrow) is probably an intermediate product of proteasome-mediated Bax degradation. (FIG. 9D) The proteasome in MCF-7 whole cell lysate (W lys, lane 1) was precipitated by using either ultraspin (ULS) or a proteasome subunit a6 antibody (IP). Both supernatant (lanes 2, 4) and pellet (lanes 3, 5) fractions were examined by Western blot assay using antibody to the proteasome a6 subunit (MW 33 kDa). (FIG. 9E) Bax degradation assay was performed as in FIG. 9B, with addition of buffer Z (lane 1) or 100 μg protein from MCF-7 whole cell lysate (lane 2), ultraspun supernatant (lane 3) or plus the pellet (lane 4), immunodepleted supernatant (lane 5) or plus a purified 20S proteasome ([…]; lane 6), or the purified proteasome alone (2 μg; lane 7). (FIG. 9F) Bax degradation assay was performed as in FIG. 9B, in the absence (lane 3) or presence of 10 mM ATP (lane 2) or 10 mM ATP-y-S (lane 4).
In vitro Bax Degradation Assay: Human Bax-a cDNA subcloned into pcDNA3 was a gift from Dr. Hong-gang Wang. Human full length of bcl-2-a cDNA was cloned from Jurkat T cells and subcloned into pcDNA3.1(−) as described+. Both bax and bcl-2 plasmids were used for coupled in vitro transcription/translation (Promega; Madison, Wis.) in the presence of [^35S]methionine (Amersham Pharmacia Biotech; Piscataway, N.J.). Protein extracts were prepared from either MCF-7 cells or prostate tumor tissues in buffer Y (50 mM Tris-HCl, pH 7.4, 250 mM NaCl, 1% Triton X-100, 0.1% SDS, 1 mM EDTA), and used for Bax (or Bcl-2) degradation assay. Briefly, 1 microl of [^35S]-labeled Bax (or Bcl-2) protein was incubated at 37° C. for 2-4 hours with 100-200 microg protein extract in buffer Z (50 mM Tris-HCl, pH 7.4, 5 mM MgCl2, 3 mM DTT, 10 mM ATP, 10 mM phosphocreatine, 10 microg/ml creatine phosphokinase, 10 microg/ml aprotinin, 10 microg/ml leupeptin, 10% glycerol and 2 microg/ml ubiquitin). After incubation, the samples were subjected to gel electrophoresis and autoradiography. Under the cell-free assay conditions, the calpain-mediated Bax cleavage activity was blocked by omission of calcium and addition of the protease inhibitor leupeptin (Wood et al, 1998). To deplete the proteasome, MCF-7 cell lysates were either immunoprecipitated with the 20S proteasome subunit a6 antibody or ultracentrifugated at 100,000×g for 6 hours. The proteasome-enriched pellet fraction was resuspended in buffer Y.
To further study the proteasome activity that degrades Bax protein, a cell-free Bax degradation assay was developed by using an in vitro-translated, [^35S]-labeled Bax protein as substrate (FIG. 9B, upper, lane 1). The Bax degradation activity is present in protein extracts prepared from exponentially growing MCF-7 (FIG. 9), K562, VA-13, WI-38, Jurkat T or HL-60 cells. The labeled Bax was almost completely degraded by a MCF-7 cell extract after 2 to 4 hours incubation at 37° C. (FIG. 9B, upper, and FIG. 9C, lanes 2 vs. 1). […]

With `CCC[C@@H](C=O)NC(=O)[C@H](CC(C)C)NC(=O)[C@H](CC(C)C)NC(=O)OCc1ccccc1` [LLnV] (Cbz-Leu-Leu-[Nva]-aldehyde) the Bax degradation process/activity was “blocked”.
`CC(=O)N[C@@H](CSC(=O)[C@]1([C@@H](O)C(C)C)NC(=O)[C@H](C)[C@@H]1O)C(=O)O` [lactacystin] was tested, and the Bax degradation process/activity was “not”.
